# Experimental data as given in patent US5763469A, “Substituted cyclic ureas and derivatives thereof useful as retroviral protease inhibitors” (The DuPont Merck Pharmaceutical Company, priority 1996, dated 1998).
# Tested on: HIV-1 (RF)
# Assay: HIV RNA assay: microplate based compound evaluation in HIV-1 infected MT-2 cells
# Format: cell-based
# Conditions: Human immunodeficiency virus 1, MT2, 72 h; HIV-1 (RF) infected MT-2 cells, 3 days of culture; virus dilutions were selected to give this value (standardisation of inoculum); read-out: IC90 value (concentration of compound required to reduce the HIV RNA level by 90%)
# Protocol: MT-2, CEM, and H9 cells were maintained in RPMI 1640 supplemented with 5% fetal calf serum (FCS), 2 mM L-glutamine and 50 μg/mL gentamycin, all from Gibco. Laboratory strains of HIV-1 (RF, MN and IIIB) were propagated in H9 cells in the same medium. Virus stocks were prepared approximately 1 month after acute infection of H9 cells by clarification of the tissue culture medium and storage of aliquots at -70° C. Infectious titers of HIV-1 (RF) stocks were 1-3×10^7 PFU (plaque forming units)/mL as measured by plaque assay on MT-2 cells (see below). Each aliquot of virus stock used for infection was thawed only once. […]
# Cell lysates or purified RNA in 3M or 5M GED were mixed with 5M GED and capture probe to a final guanidinium isothiocyanate concentration of 3M and a final biotin oligonucleotide concentration of 30 nM. […] Immobilized alkaline phosphatase activity was detected by addition of 100 μL of 0.2 mM 4-methylumbelliferyl phosphate (MUBP, JBL Scientific) in buffer δ(2.5M diethanolamine pH 8.9 (JBL Scientific), 10 mM MgCl2, 5 mM zinc acetate dihydrate and 5 mM N-hydroxyethyl-ethylene-diamine-triacetic acid). […] Fluorescence at […] was measured using a microplate fluorometer (Dynateck) exciting at 365 nm.
# Compounds to be evaluated were dissolved in DMSO and diluted in culture medium to twice the highest concentration to be tested and a maximum DMSO concentration of 2%. […]
smiles,measurement,value
"Nc1ccn([C@H]2CC[C@@H](CO)O2)c(=O)n1 [ddC, dideoxycytidine]",IC90,0.2 µg/mL
